Peptide text beside a SMILES is read from it. * marks the point of attachment. C18 diacid = O=C(O)CCCCCCCCCCCCCCCCC(=O)*
What was measured:
[1] = Assay (X) pK, T½ in rat; type: in vivo, Sprague Dawley rats
Experimental: Assay (X)—pK—Determination of T½ in Rat
Pharmacokinetic (PK) studies rats were conducted in order to determine the T½ of mimylin peptide after i.v. and s.c. administration.
T½ values of the mimylin derivates of the invention is determined by pharmacokinetic studies in Sprague Dawley male rats, from Taconic Europe and the principles of laboratory animal care are followed.
An acclimatisation period of approximately 7 days was allowed before the animals entered the study. At start of the acclimatisation period the rats were in the weight range of 250-400 g.
The studies were conducted in an animal room which was illuminated to give a cycle of approximately 12 hours light and 12 hours darkness. The animals were group housed and had food and water ad lib. The animals were weighed on the days of dosing.
In the present studies the test substances were administered subcutaneously or intravenously in approximately 20 nmol/kg dose. The animals received a single subcutaneous injection to the neck for subtaneous administration or directly into the tail vein for intravenous administration. Each test substance was given to typically three but in some cases two or four animals.
A full plasma concentration-time profile, employing 8-10 sampling points, was obtained from each animal. In example blood samples were collected according to the following schedule: After subcutaneous or intravenous administration:
At each sampling time, 0.08 to 0.10 ml of blood was drawn from each animal. The blood samples were taken in the sublingual vein via venous puncture and the use of a capillary tube.
The blood samples were stabilised with EDTA. Blood samples were kept on ice for max 20 min. before centrifugation. Plasma was separated using centrifugation (i.e. at 4° C., 10 min., 1500G) and was immediately transferred to Micronic tubes or PCR plates. Approximately 40 μl plasma was transferred and was stored at −20° C. until assayed. The plasma samples were assayed for the content of mimylin compound by LCMS
The plasma concentration-time profiles were analysed by a non-compartmental pharmacokinetic analysis (NCA) using Phoenix WinNonlin 6.3 (Pharsight Inc., Mountain View, Calif., USA). NCA was performed using the individual plasma concentration-time profiles from each animal. T½ is the terminal half-life=In2/λz and was determined from λz, the first order rate constant associated with the terminal (log-linear) portion of the curve, estimated by linear regression of time vs. log concentration.

[2] = Assay (XV) subcutaneous PK in LYD-pigs, co-formulated or co-dosed with liraglutide; type: in vivo; conditions: for AUC/D / Cmax/D / T½: LYD-pigs s.c.
Experimental: The studies were performed in female LYD pigs of SPF origin delivered from Lars Jonson, Hillerødvej 70, Lynge.
Before the animals arrived, the animal rooms and pens were cleaned and disinfected with Virkon S. During the study, the animal rooms were cleaned and washed regularly.
The pigs were group housed during the acclimatisation period. The pigs were fitted with a central venous catheter while under anaesthesia and after the single housed after catheterization in pens ≧3.1 m^2 with straw as bedding. The temperature in the rooms was set at 20−23° C. and the relative humidity to 30-70%. The rooms were illuminated to give a cycle of 12 hours light and 12 hours darkness. Light was on from 07.00 to 19.00 h.
The formulations was prepared similarly and filled in cartridges in all cases.
The animals were dosed subcutaneously as follows.
The s.c. dosing was performed in 4 mm depth, in a site of injection which was secured on beforehand by ultrasound to avoid muscular tissue or heavy vascularization. Dosing was made using NovoPen®4 and needle Novofine 28 G and a needle stopper to ensure 4 mm depth of injection. The needle was kept in the subcutis for 10 seconds after the injection to secure deposition of compound. […] The co-formulation was administered as one injection. Study was performed as a cross over study with adequate wash out between dosings.
Blood was sampled at predefined time points for up till 15 days post dosing to adequately cover the full plasma concentration-time profile of the mimylin derivative. Blood samples were drawn from a central venous catheter to jugularis made through the catheter which was afterwards flushed with 10 ml 0.9% NaCl.
For each blood sampling time point approximately 0.8 mL of whole blood was collected in a 1.5 mL EDTA coated tube, and the tube was gently turned to allowing mixing of the sample with the anticoagulant. Blood samples (for example 0.8 mL) were collected in EDTA buffer (8 mM) and then centrifuged at 4° C. and 2000 G for 10 minutes. Plasma was pipetted into Micronic tubes on dry ice, and kept at −20° C. until analysis.
Individual plasma concentration-time profiles were analysed by a non-compartmental model in Phoenix WinNonlin version 6.3 (Pharsight Inc., Mountain View, Calif., USA).
The area under the plasma concentration versus time curve (AUC, [time×concentration]) was calculated (by the Pharsight programme) after subcutaneous administration, typically until 240-288 hours post dosing, or until last measured concentration. The AUC was calculated and given as AUCinf-pred and dose normalized.
Results of co-formulation studies in LYD-pigs are summarized below

[3] = Co-formulation liraglutide + Ex #2

CC(C)C[C@H](NC(=O)[C@H](C)NC(=O)[C@H](C)NC(=O)[C@@H](NC(=O)[C@H](CO)NC(=O)[C@H](CC(C)C)NC(=O)[C@H](CCC(=O)O)NC(=O)[C@H](CO)NC(=O)[C@H](C)NC(=O)[C@H](CCC(=O)O)NC(=O)CCCCCCCCCCCCCCCCC(=O)O)[C@@H](C)O)C(=O)NCC(=O)N[C@@H](CCCNC(=N)N)C(=O)N[C@@H](CC(C)C)C(=O)N[C@@H](CO)C(=O)N[C@@H](C)C(=O)N[C@@H](CCC(=O)O)C(=O)N[C@@H](CC(C)C)C(=O)N[C@@H](Cc1cnc[nH]1)C(=O)N[C@@H](CCC(=O)O)C(=O)N[C@@H](CC(C)C)C(=O)N[C@@H](C)C(=O)N[C@H](C(=O)N[C@@H](CC(C)C)C(=O)N1CCC[C@H]1C(=O)N[C@@H](CCCNC(=N)N)C(=O)N[C@H](C(=O)N[C@@H](CCC(=O)O)C(=O)N[C@H](C(=O)NCC(=O)N1CCC[C@H]1C(=O)N[C@@H](CCC(=O)O)C(=O)N[C@@H](CO)C(=O)N1CCC[C@H]1C(N)=O)[C@@H](C)O)[C@@H](C)O)[C@@H](C)O [Ex. #2, [N-terminal(C18 diacid)]mimylin] ({C18 diacid}-EASELSTAALGRLSAELHELATLPRTETGPESP-NH2)
PK rat iv T½ ([1]; i.v.): 12 h
PK rat sc T½ ([1]; s.c.): 13 h
AUC/D ([2]; Co-dosing liraglutide + Ex #2): 712 kg·h/L
Cmax/D ([2]; Co-dosing liraglutide + Ex #2): 6.9 kg/L
T½ ([2]; Co-dosing liraglutide + Ex #2): 67 h
AUC/D [2, 3]: 732 kg·h/L
Cmax/D [2, 3]: 5.8 kg/L
T½ [2, 3]: 67 h
effect on PK profile of the co-formulated peptide ([2]; administered as co-formulations to LYD pigs): do not affect the PK profile of liraglutide

Reference: patent US9593149B2, “Amylin and calcitonin receptor agonist” (Novo Nordisk A/S, priority 2014, dated 2017)
